Laboratory results reported in patent publication US20240109910A1, “HEXAHYDRO-5,8-EPOXYCYCLOHEPTA[c]PYRAZOLE DERIVATIVES USEFUL AS MODULATORS OF THE CB1 AND / OR CB2 RECEPTORS” (JANSSEN PHARMACEUTICA NV, priority 2019, published 2024).

What was measured:
hCB2 receptor = hCB2 receptor (Homo sapiens, UniProt P34972); test: Agonism of CB2 by detection of cAMP using HTRF; assay type: cell-based; settings: CHO cells stably expressing CB2 receptor; for EC50: cAMP HTRF, forskolin-stimulated, average if tested more than once, read-out: hCB2 CHO EC50; for Emax: normalized to DMSO and maximal activation (5 nM CP55940)
hCB2 receptor, sequence (P34972 whole entry): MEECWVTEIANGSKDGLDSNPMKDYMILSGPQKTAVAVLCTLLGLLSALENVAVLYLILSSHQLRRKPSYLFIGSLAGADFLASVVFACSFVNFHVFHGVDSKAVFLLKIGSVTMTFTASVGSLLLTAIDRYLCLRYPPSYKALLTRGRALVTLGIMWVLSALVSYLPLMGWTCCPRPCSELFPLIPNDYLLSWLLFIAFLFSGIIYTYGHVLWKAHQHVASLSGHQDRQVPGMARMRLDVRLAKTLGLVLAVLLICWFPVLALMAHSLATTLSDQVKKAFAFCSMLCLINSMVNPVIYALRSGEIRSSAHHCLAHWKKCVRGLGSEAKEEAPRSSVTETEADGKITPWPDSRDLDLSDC
Experimental: (§1) Method for Assaying Agonism of CB1 or CB2 by Detection of cAMP Using Homogeneous Time-Resolved Fluorescence (HTRF®)
(§2) CHOP-K1 cells stably expressing the CB1 receptor (PerkinElmer, ES-110-C) or the CB2 receptor (PerkinElmer, ES-111-CF) were seeded into 384 well white TC-treated plates (Greiner 781080) at 7000 cells per well in Ham's media (Gibco #31765-035) supplemented with 10% FBS (Gibco #16000-044) and 500 μg/mL Geneticin (Gibco #10131-027) and cultured overnight. The next day, plates were washed one time in assay buffer (HBSS with Ca^2+ and Mg^2+ (Corning #21-023-CV)+20 mM HEPES (Corning #25-060-Cl) and 0.01% BSA (Sigma A2153)). In a separate compound plate (Greiner 781201-906), 50 nL of test compound or DMSO was transferred using the Echo 550 (Labcyte), then 40 μL/well of assay buffer with 0.5 mM IBMX, 2 μM Forskolin (Sigma F3917), and 0.01% BSA was added. For the CB1 assay, assay buffer was dumped from the cell plate and fresh assay buffer containing 0.5 mM IBMX (Sigma I5679) was added at 30 μL/well, and the plate was incubated for 1 hr at 37° C., 5% CO2. Following the IBMX pre-treatment step, buffer was dumped from the cell plate, and 20 μL/well of the assay buffer with test compound was transferred into the cell plate with a subsequent incubation of 20 min at room temperature. Reagents for cAMP detection (cisbio 62AM4PEJ) were prepared and subsequently transferred to the cell plate at 20 μL/well. Following a 1 hr incubation at room temperature, the plate was read on the Pherastar FX (BMG, excitation 320 nm, detection at 620 nm (donor) and 665 nm (acceptor)). The ratio of signal at 665 nm/620 nm was determined for each well in the plate. For each assay day, a cAMP standard curve was run in parallel to assess the range of response and determine the concentration of cAMP in each well. Control wells (n=16 of each) with no activation of CB1 receptor (DMSO) and maximal activation (5 nM CP55940, Sigma) were used to normalize the data and to determine signal-to-background ratio and Z′. For the CB2 assay, conditions were as described above for the CB1 assay, except that the IBMX preincubation step was not used and that the 20 min compound incubation step occurred in the incubator at 37° C., 5% CO2.
(§3) EC50 values were calculated from dose response curves by nonlinear regression analysis using PRISM software.
(§4) Representative compounds of the present invention were tested according to the procedures described in Biological Example 1 above, with results as listed in Table 3, below. If a compound was tested more than once (due to multiple samples or batches), then the value listed in Table 3 below represents the average of the measured values.

hCB1 receptor = hCB1 receptor (Homo sapiens, UniProt P21554); test: Agonism of CB1 by detection of cAMP using HTRF; assay type: cell-based; settings: CHO cells stably expressing CB1 receptor; for EC50: cAMP HTRF, forskolin-stimulated, average if tested more than once, read-out: hCB1 CHO EC50; for Emax: normalized to DMSO and maximal activation (5 nM CP55940)
hCB1 receptor, sequence (P21554 whole entry): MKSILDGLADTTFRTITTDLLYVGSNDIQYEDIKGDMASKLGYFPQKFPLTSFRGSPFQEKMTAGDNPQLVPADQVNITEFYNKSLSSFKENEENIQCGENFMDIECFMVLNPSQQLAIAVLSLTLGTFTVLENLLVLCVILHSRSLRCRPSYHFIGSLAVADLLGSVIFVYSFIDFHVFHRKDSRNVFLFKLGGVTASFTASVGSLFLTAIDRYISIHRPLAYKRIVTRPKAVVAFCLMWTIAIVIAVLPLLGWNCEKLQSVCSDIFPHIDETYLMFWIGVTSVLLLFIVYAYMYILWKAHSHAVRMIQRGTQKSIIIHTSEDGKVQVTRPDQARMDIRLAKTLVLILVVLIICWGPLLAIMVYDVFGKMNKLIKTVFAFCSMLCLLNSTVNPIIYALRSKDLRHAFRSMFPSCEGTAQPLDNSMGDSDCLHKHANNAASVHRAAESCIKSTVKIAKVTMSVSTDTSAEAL
Experimental: as §1, §2, §3, §4

Question: `CC(C)(C)NC(=O)c1nn(-c2ccc(F)cc2F)c2c1CC1CCC2O1` (stereo not drawn) [Compound 1, N-(tert-butyl)-1-(2,4-difluorophenyl)-1,4,5,6,7,8-hexahydro-5,8-epoxycyclohepta[c]pyrazole-3-carboxamide] was tested. Which EC50 (hCB2 receptor) did it give?
Answer: 1.2 nM

Question: And the Emax (hCB2 receptor)?
Answer: 95.6%

Question: What about the EC50 (hCB1 receptor) of the same compound?
Answer: 108 nM

Question: And the Emax (hCB1 receptor)?
Answer: 99%

Question: `CCC(C)(C)c1noc(-c2nn(-c3c[n+]([O-])ccn3)c3c2CC2CCC3O2)n1` (stereo not drawn) [Compound 25, 3-(3-(3-(tert-pentyl)-1,2,4-oxadiazol-5-yl)-5,6,7,8-tetrahydro-5,8-epoxycyclohepta[c]pyrazol-1(4H)-y)pyrazine 1-oxide] was tested. Which EC50 (hCB2 receptor) did it give?
Answer: 0.02 nM

Question: What about the Emax (hCB2 receptor) of the same compound?
Answer: 99.5%

Question: And the EC50 (hCB1 receptor)?
Answer: 114 nM

Question: And the Emax (hCB1 receptor)?
Answer: 98.9%

Question: How did the EC50 (hCB2 receptor) turn out when `CC(C)(C)NC(=O)c1nn(-c2cnccn2)c2c1CC1CCC2O1` (stereo not drawn) [Compound 3, N-(tert-butyl)-1-(pyrazin-2-yl)-1,4,5,6,7,8-hexahydro-5,8-epoxycyclohepta[c]pyrazole-3-carboxamide] was run?
Answer: 3.8 nM

Question: What about the Emax (hCB2 receptor) of the same compound?
Answer: 99.7%

Question: And the EC50 (hCB1 receptor)?
Answer: 2080 nM

Question: What about the Emax (hCB1 receptor) of the same compound?
Answer: 94.8%

Question: What does the source list for `CC(C)(C)NC(=O)c1nn(-c2c[n+]([O-])ccn2)c2c1CC1CCC2O1` (stereo not drawn) [Compound 31, 3-(3-(tert-butylcarbamoyl)-5,6,7,8-tetrahydro-5,8-epoxycyclohepta[c]pyrazol-1(4H)-yl)pyrazine 1-oxide]?
Answer: EC50 (hCB2 receptor): 0.33 nM; Emax (hCB2 receptor): 99.7%; EC50 (hCB1 receptor): 1430 nM; Emax (hCB1 receptor): 83.2%

Question: How did the EC50 (hCB2 receptor) turn out when `CC(C)(C)NC(=O)c1c2c(nn1-c1ccc(F)cc1F)C1CCC(C2)O1` (stereo not drawn) [Compound 2, N-(tert-butyl)-2-(2,4-difluorophenyl)-2,4,5,6,7,8-hexahydro-5,8-epoxycyclohepta[c]pyrazole-3-carboxamide] was run?
Answer: 2980 nM

Question: What about the Emax (hCB2 receptor) of the same compound?
Answer: 72.8%

Question: `CC(C)(C)NC(=O)c1nn(-c2c[n+]([O-])ccn2)c2c1C1CCC(C2)O1` (stereo not drawn) [Compound 48] was tested. Which EC50 (hCB2 receptor) did it give?
Answer: 1.98 nM

Question: What about the Emax (hCB2 receptor) of the same compound?
Answer: 99.9%

Question: Which results are given for `O=C(NC1(C(F)(F)F)CC1)c1nn(-c2c[n+]([O-])ccn2)c2c1CC1CCC2O1` (stereo not drawn) [Compound 17, 3-(3-((1-(trifluoromethyl)cyclopropyl)carbamoyl)-5,6,7,8-tetrahydro-5,8-epoxycyclohepta[c]pyrazol-1(4H)-yl)pyrazine 1-oxide]?
Answer: EC50 (hCB2 receptor): 0.12 nM; Emax (hCB2 receptor): 100%

Question: Which EC50 (hCB2 receptor) does the source give for `CC(C)(CO)NC(=O)c1nn(-c2cnccn2)c2c1CC1CCC2O1` (stereo not drawn) [Compound 11, N-(1-hydroxy-2-methylpropan-2-yl)-1-(pyrazin-2-yl)-1,4,5,6,7,8-hexahydro-5,8-epoxycyclohepta[c]pyrazole-3-carboxamide] here?
Answer: 7.1 nM

Question: What about the Emax (hCB2 receptor) of the same compound?
Answer: 99.2%

Question: What does the source list for `CC(C)(C)NC(=O)c1c2c(nn1-c1c[n+]([O-])ccn1)CC1CCC2O1` (stereo not drawn) [Compound 49]?
Answer: EC50 (hCB2 receptor): 2670 nM; Emax (hCB2 receptor): 80.3%

Question: Which results are given for `CC(C)(C)c1nnc(-c2nn(-c3c[n+]([O-])ccn3)c3c2CC2CCC3O2)[s+]1[O-]` (stereo not drawn) [Compound 28, 3-(3-(5-(tert-butyl)-1-oxido-1,3,4-thiadiazol-2-yl)-5,6,7,8-tetrahydro-5,8-epoxycyclohepta[c]pyrazol-1(4H)-yl)pyrazine 1-oxide]?
Answer: EC50 (hCB2 receptor): 0.74 nM; Emax (hCB2 receptor): 99%

Question: `CC(C)(CO)NC(=O)c1nn(-c2c[n+]([O-])ccn2)c2c1CC1CCC2O1` (stereo not drawn) [Compound 19, 3-(3-((1-hydroxy-2-methylpropan-2-yl)carbamoyl)-5,6,7,8-tetrahydro-5,8-epoxycyclohepta[c]pyrazol-1(4H)-yl)pyrazine 1-oxide] was tested. Which EC50 (hCB2 receptor) did it give?
Answer: 1 nM

Question: And the Emax (hCB2 receptor)?
Answer: 100%

Question: Which EC50 (hCB2 receptor) does the source give for `CC(C)(C)c1csc(-c2nn(-c3c[n+]([O-])ccn3)c3c2CC2CCC3O2)n1` (stereo not drawn) [Compound 44, 3-(3-(4-(tert-butyl)thiazol-2-yl)-5,6,7,8-tetrahydro-5,8-epoxycyclohepta[c]pyrazol-1(4H)-yl)pyrazine 1-oxide] here?
Answer: 46.3 nM

Question: What about the Emax (hCB2 receptor) of the same compound?
Answer: 84.6%

Question: `CC(C)(C)NC(=O)c1c2c(nn1-c1c[n+]([O-])ccn1)C1CCC(C2)O1` (stereo not drawn) [Compound 30, 3-(3-(tert-butylcarbamoyl)-5,6,7,8-tetrahydro-5,8-epoxycyclohepta[c]pyrazol-2(4H)-yl)pyrazine 1-oxide] was tested. Which EC50 (hCB2 receptor) did it give?
Answer: 7970 nM

Question: What about the Emax (hCB2 receptor) of the same compound?
Answer: 66.3%

Question: What does the source list for `CC(C)(C)c1nnc(-c2nn(-c3cnccn3)c3c2CC2CCC3O2)o1` (stereo not drawn) [Compound 39, 3-(5-(tert-butyl)-1,3,4-oxadiazol-2-yl)-1-(pyrazin-2-yl)-1,4,5,6,7,8-hexahydro-5,8-epoxycyclohepta[c]pyrazole]?
Answer: EC50 (hCB2 receptor): 0.26 nM; Emax (hCB2 receptor): 100%

Question: With `CC(C)(C)c1cnc(-c2nn(-c3cnccn3)c3c2CC2CCC3O2)s1` (stereo not drawn) [Compound 34, 3-(5-(tert-butyl)thiazol-2-yl)-1-(pyrazin-2-yl)-1,4,5,6,7,8-hexahydro-5,8-epoxycyclohepta[c]pyrazole] as the compound, how does the EC50 (hCB2 receptor) read?
Answer: 0.24 nM

Question: What about the Emax (hCB2 receptor) of the same compound?
Answer: 99.7%

Question: How did the EC50 (hCB2 receptor) turn out when `CC(C)(C)[C@@H](CO)NC(=O)c1nn(-c2cnccn2)c2c1C[C@@H]1CC[C@H]2O1` [Compound 7, (5S,8R)-N-((S)-1-hydroxy-3,3-dimethylbutan-2-yl)-1-(pyrazin-2-yl)-1,4,5,6,7,8-hexahydro-5,8-epoxycyclohepta[c]pyrazole-3-carboxamide] was run?
Answer: 0.56 nM

Question: And the Emax (hCB2 receptor)?
Answer: 100%

Question: `CCC(C)(C)c1noc(-c2nn(-c3cnccn3)c3c2CC2CCC3O2)n1` (stereo not drawn) [Compound 36, 3-(3-(tert-pentyl)-1,2,4-oxadiazol-5-yl)-1-(pyrazin-2-yl)-1,4,5,6,7,8-hexahydro-5,8-epoxycyclohepta[c]pyrazole] was tested. Which EC50 (hCB2 receptor) did it give?
Answer: 0.04 nM

Question: And the Emax (hCB2 receptor)?
Answer: 99.8%

Question: What does the source list for `CC(C)(C)c1nc(-c2nn(-c3cnccn3)c3c2CC2CCC3O2)no1` (stereo not drawn) [Compound 32, 3-(5-(tert-butyl)-1,2,4-oxadiazol-3-yl)-1-(pyrazin-2-yl)-1,4,5,6,7,8-hexahydro-5,8-epoxycyclohepta[c]pyrazole]?
Answer: EC50 (hCB2 receptor): 0.33 nM; Emax (hCB2 receptor): 100%

Question: `CC(C)(C)NC(=O)c1nn(-c2ccc(F)cc2F)c2c1C1CCC(C2)O1` (stereo not drawn) [Compound 47] was tested. Which EC50 (hCB2 receptor) did it give?
Answer: 559 nM

Question: And the Emax (hCB2 receptor)?
Answer: 82.5%

Question: For `CC(C)(C)c1nc(-c2nn(-c3c[n+]([O-])ccn3)c3c2CC2CCC3O2)no1` (stereo not drawn) [Compound 23, 3-(3-(5-(tert-butyl)-1,2,4-oxadiazol-3-yl)-5,6,7,8-tetrahydro-5,8-epoxycyclohepta[c]pyrazol-1(4H)-yl)pyrazine 1-oxide], which EC50 (hCB2 receptor) is on record?
Answer: 0.1 nM

Question: What about the Emax (hCB2 receptor) of the same compound?
Answer: 100%

Question: `CC(C)(C)NC(=O)c1c2c(nn1-c1cnccn1)CC1CCC2O1` (stereo not drawn) [Compound 46] was tested. Which EC50 (hCB2 receptor) did it give?
Answer: 1650 nM

Question: And the Emax (hCB2 receptor)?
Answer: 85.8%

Question: Which results are given for `CC(C)(C)NC(=O)c1nn(-c2cnccn2)c2c1C1CCC(C2)O1` (stereo not drawn) [Compound 45]?
Answer: EC50 (hCB2 receptor): 22.9 nM; Emax (hCB2 receptor): 98.1%

Question: Which results are given for `CC(C)(C)NC(=O)c1c2c(nn1-c1cnccn1)C1CCC(C2)O1` (stereo not drawn) [Compound 4, N-(tert-butyl)-2-(pyrazin-2-yl)-2,4,5,6,7,8-hexahydro-5,8-epoxycyclohepta[c]pyrazole-3-carboxamide]?
Answer: EC50 (hCB2 receptor): 4070 nM; Emax (hCB2 receptor): 75.8%

Question: Which EC50 (hCB2 receptor) does the source give for `O=C(NC1(C(F)(F)F)CC1)c1nn(-c2cnccn2)c2c1CC1CCC2O1` (stereo not drawn) [Compound 9, 1-(pyrazin-2-yl)-N-(1-(trifluoromethyl)cyclopropyl)-1,4,5,6,7,8-hexahydro-5,8-epoxycyclohepta[c]pyrazole-3-carboxamide] here?
Answer: 0.24 nM

Question: What about the Emax (hCB2 receptor) of the same compound?
Answer: 100%

Question: With `CC(C)(C)c1cnc(-c2nn(-c3cnccn3)c3c2CC2CCC3O2)o1` (stereo not drawn) [Compound 40, 3-(5-(tert-butyl)oxazol-2-yl)-1-(pyrazin-2-yl)-1,4,5,6,7,8-hexahydro-5,8-epoxycyclohepta[c]pyrazole] as the compound, how does the EC50 (hCB2 receptor) read?
Answer: 0.13 nM

Question: What about the Emax (hCB2 receptor) of the same compound?
Answer: 99.7%

Question: `CC(C)(C)[C@@H](CO)NC(=O)c1nn(-c2c[n+]([O-])ccn2)c2c1C[C@@H]1CC[C@H]2O1` [Compound 15, 3-((5S,8R)-3-(((S)-1-hydroxy-3,3-dimethylbutan-2-yl)carbamoyl)-5,6,7,8-tetrahydro-5,8-epoxycyclohepta[c]pyrazol-1(4H)-yl)pyrazine 1-oxide] was tested. Which EC50 (hCB2 receptor) did it give?
Answer: 0.34 nM

Question: And the Emax (hCB2 receptor)?
Answer: 101%
